Laboratory results taken from BigSolDB 2.1.

Nc1ncc(Br)nc1Br
solubility (mole fraction)
Conditions	278.15 K	283.15 K	288.15 K	293.15 K	298.15 K	303.15 K	308.15 K	313.15 K	318.15 K	323.15 K
in ethanol	0.000754	0.000938	0.00115	0.00136	0.00158	0.0018	0.00202	0.00231	0.00261	0.00291
in ethylene glycol	0.000127	0.000155	0.000185	0.000219	0.000256	0.000291	0.00033	0.000373	0.00042	0.000469
in isopropanol	0.000516	0.000615	0.00072	0.00085	0.000986	0.00115	0.00131	0.00149	0.00169	0.00192
in propylene glycol	0.000258	0.000304	0.00037	0.000432	0.000506	0.000577	0.000651	0.000734	0.000827	0.000928
in water	2.55e-06	3.14e-06	3.73e-06	4.44e-06	5.18e-06	5.89e-06	6.76e-06	7.68e-06	8.61e-06	9.63e-06

Nc1nccnc1Cl
solubility (mole fraction)
Conditions	278.15 K	283.15 K	288.15 K	293.15 K	298.15 K	303.15 K	308.15 K	313.15 K	318.15 K	323.15 K
in DMF	0.00918	0.0122	0.0155	0.02	0.0247	0.0295	0.0346	0.04	0.0456	0.0515
in ethylene glycol	0.000725	0.000935	0.00117	0.00147	0.0018	0.00217	0.00257	0.00301	0.00348	0.00394
in isopropanol	0.002	0.00254	0.00319	0.004	0.00488	0.00591	0.00697	0.008	0.00929	0.0109
in methanol	0.00283	0.00372	0.00479	0.00598	0.00723	0.00847	0.01	0.0116	0.0133	0.0153
in water	2.78e-05	3.74e-05	4.95e-05	6.21e-05	7.6e-05	9.05e-05	0.000106	0.000123	0.00014	0.000158
